# Measured values as given in patent US6376666B1 (Nauchno-Issledovatelsky Institut Farmakologii Rossiiskoi …, priority 1994, dated 2002).
# Marks after values point to notes of the source that are not given here.
# Key:
# Type in all cases: in vivo
# Balb/c mice = assay: open-field test, Balb/c mice (passive type of emotional-stress reaction); conditions: i.p., screening
# Text: The main point of this approach consists in comparative analysis of the behavioural effects of tested compounds in two inbred strains of mice Balb/c and C57B1/6 with different hereditary types of emotional-stress reactions (ESR). The anxiolytic effect was estimated as the activation of the locomotor activity of animals with “passive” type of ESR (Balb/c mice). The main index describing the sedative properties of tested drugs was the inhibition of the locomotor activity of mice with “active” type of ESR (C57B1/6 strain). The anxioselectivity was evaluated according to coincidence of doses range which activated or inhibited the behavior of mice of different strains. Earlier this approach has been successfully used for estimation of anxioselective activity of such known drugs as phenazepam [Seredenin S. B. et al., Bull.Exp.Biol.Med., 1979, v.88, N7, p.38; Seredenin S. B. et al., Ann.Inst.Super.Sanita, 1990, v.26, N1, p.81-88], mexidol [Seredenin S. B. et al., Khimiko-Farmatsevt.Zhurnal, 1987, N2, p.134; Vironina T. A., Seredenin S. B., Ann.Inst.Super.Sanita, 1988, v.24, N3, p.461-466] and gidazepam [Seredenin S. B. et al., in: “Gidazepam” Kiev, Naukova Dumka, 1992, p.92; Seredenin S. B., Blednov Yu. A., Phys.Chem.Biol.Med., 1993, v.1, N1, p.53-60].
# Male C57B1/6 and Balb/c mice (“Stolbovaya” animal farm), weighing 20-22 g were used. The animals were housed in a separate animal room in groups of ten and maintained on 12 h light-dark cycle (light from 8.00 till 20.00) with free access to standard food and water during two weeks before experiment. Testing was performed between 9.00 and 13.00. Every used compound was administered intraperitoneally in water solutions 30 min before testing (0,1 ml solution per 10 g of weight). The “open-field” apparatus consisted of cylinder closed from one end, illuminated by four 75 W lamps fixed to the walls 100 cm above the floor. The “open-field” apparatus was 100 cm in diameter and white-painted; the floor was marked with 3 black circles and some radial lines divided the floor into 16 peripheral and 8 central segments. 30 min after injection each animal was placed in the same peripheral square on the floor for 3 min of testing after 1 min exposure in the dark chamber. The following behavior variables were recorded: 1) the number of crossings in the peripheral area (peripheral activity); 2) the number of crossings in the central segments (central activity); 3) the number of rearings (vertical activity); 4) the emotionality was measured as the number of defecations during the test. The sum of all types of locomotor activity was marked as total activity. The t-Student test was used for statistical analysis.
# cats = assay: hemodynamics and activity of intact heart in cats under anesthesia; conditions: for Cardiac volume, change from basal level / Heart rate, change from basal level / Mean blood flow accelaration (aortic), change from basal level / Mean blood pressure, change from basal level / Stroke volume, change from basal level: cats, 1.0 mg/kg i.v.
# Experimental: The effects of compounds on the hemodynamics and activity of intact heart were studied in cats under anesthesia. The experiments were carried out under conditions of open chest. The phase curve of aortic blood flow was the main index of cardiac activity. The compounds were administered i.v. in physiological solution. The t-Student' test was used to estimate the statistical significance.
# [1] = tested on: ischemized myocardium of cats; assay: ST-segment elevation during 5 min occlusions of coronary artery (acute coronary deficiency); conditions: for change in mean elevation of ST-segment vs control occlusion: cats, 1.0 mg/kg i.v.
# Experimental: These experiments were conducted in cats weighing 2,5-4,0 kg under anasthesia by i.v. injection of nembutal (40 mg/kg) in open chest conditions. Epicardium electrogram in 3-4 leads was registered in “Mingograph-81”. The value of mean elevation of ST-segment during 5 min occlusions of anterior left descending coronary artery with 15 min reperfusions between them was the main index of intensity of reversible ischemized damage of myocardium.
# The statistical calculation was carried out with non-parametric Wilcocson method for associated variants.
smiles,measurement,setting,value
CCOc1ccc2nc(SCCN(C)C)[nH]c2c1 [VIII],"effect on the behavior (locomotor activity) of Balb/c mice in open-field test, in words",Balb/c mice,neither activatory nor inhibitory effects
same,"effect on contractile function of heart, in words","cats; cats i.v., same doses as bradycardia",slightly enhanced the contractility of myocardium
same,duration of bradycardia after administration,"cats; cats i.v., VIII 1,0, IX 0,5 and 1,0, XX 1,0 and 2,0 mg/kg",30 min
same,"effect on heart rate, in words","cats; cats i.v., VIII 1,0, IX 0,5 and 1,0, XX 1,0 and 2,0 mg/kg, XXIII 1.0, verapamil 0.5 mg/kg",expressed bradycardia
same,"Cardiac volume, change from basal level",cats; after 2 min,+7.0 ± 2.9%
same,"Heart rate, change from basal level",cats; after 2 min,−10.9 ± 2.3 %
same,"Mean blood flow accelaration (aortic), change from basal level",cats; after 2 min,+3.3 ± 2.7%
same,"Mean blood pressure, change from basal level",cats; after 2 min,−1.8 ± 3.8%
same,"Stroke volume, change from basal level",cats; after 2 min,+20.6 ± 6.5 %
same,"Cardiac volume, change from basal level",cats; after 5 min,+6.0 ± 12.8%
same,"Heart rate, change from basal level",cats; after 5 min,−3.2 ± 1.4%
same,"Mean blood flow accelaration (aortic), change from basal level",cats; after 5 min,−2.0 ± 9.0%
same,"Mean blood pressure, change from basal level",cats; after 5 min,−2.8 ± 5.7%
same,"Stroke volume, change from basal level",cats; after 5 min,+5.6 ± 10.8%
same,"Cardiac volume, change from basal level",cats; after 10 min,−7.5 ± 9.6%
same,"Heart rate, change from basal level",cats; after 10 min,−4.4 ± 1.9%
same,"Mean blood flow accelaration (aortic), change from basal level",cats; after 10 min,−5.2 ± 7.8%
same,"Mean blood pressure, change from basal level",cats; after 10 min,−7.8 ± 5.7%
same,"Stroke volume, change from basal level",cats; after 10 min,−3.5 ± 8.7%
same,"Cardiac volume, change from basal level",cats; after 20 min,−7.2 ± 9.2%
same,"Heart rate, change from basal level",cats; after 20 min,−3.2 ± 1.8%
same,"Mean blood flow accelaration (aortic), change from basal level",cats; after 20 min,−6.2 ± 7.6%
same,"Mean blood pressure, change from basal level",cats; after 20 min,−12.0 ± 5.0%
same,"Stroke volume, change from basal level",cats; after 20 min,−4.5 ± 8.4%
same,"Cardiac volume, change from basal level",cats; after 30 min,−2.2 ± 3.0%
same,"Heart rate, change from basal level",cats; after 30 min,−5.4 ± 3.1%
same,"Mean blood flow accelaration (aortic), change from basal level",cats; after 30 min,+1.2 ± 2.1%
same,"Mean blood pressure, change from basal level",cats; after 30 min,−6.5 ± 5.7%
same,"Stroke volume, change from basal level",cats; after 30 min,+3.5 ± 3.5%
same,"Cardiac volume, change from basal level",cats; after injection,38.1 ± 11.6 %
same,"Heart rate, change from basal level",cats; after injection,−15.3 ± 1.1 %
same,"Mean blood flow accelaration (aortic), change from basal level",cats; after injection,+31.3 ± 10.8%
same,"Mean blood pressure, change from basal level",cats; after injection,−14.8 ± 12.5%
same,"Stroke volume, change from basal level",cats; after injection,63.2 ± 14.0 %
same,change in mean elevation of ST-segment vs control occlusion,"[1]; occlusion 20 min after injection, 30 sec of occlusion",−0.45 mv
same,change in mean elevation of ST-segment vs control occlusion,"[1]; occlusion 20 min after injection, 1 min of occlusion",−0.30 mv
same,change in mean elevation of ST-segment vs control occlusion,"[1]; occlusion 20 min after injection, 2 min of occlusion",−0.50 mv
same,change in mean elevation of ST-segment vs control occlusion,"[1]; occlusion 20 min after injection, 4 min of occlusion",−0.50 mv
same,change in mean elevation of ST-segment vs control occlusion,"[1]; occlusion 20 min after injection, 5 min of occlusion",−0.25 mv
same,change in mean elevation of ST-segment vs control occlusion,"[1]; occlusion 40 min after injection, 15 sec of reperfusion",−0.75 mv
same,change in mean elevation of ST-segment vs control occlusion,"[1]; occlusion 40 min after injection, 30 sec of occlusion",−0.55 mv
same,change in mean elevation of ST-segment vs control occlusion,"[1]; occlusion 40 min after injection, 1 min of occlusion",−0.35 mv
same,change in mean elevation of ST-segment vs control occlusion,"[1]; occlusion 40 min after injection, 2 min of occlusion",−0.40 mv
same,change in mean elevation of ST-segment vs control occlusion,"[1]; occlusion 40 min after injection, 4 min of occlusion",−0.50 mv
same,change in mean elevation of ST-segment vs control occlusion,"[1]; occlusion 40 min after injection, 5 min of occlusion",−0.85 mv
same,change in mean elevation of ST-segment vs control occlusion,"[1]; occlusion immediately after injection, 15 sec of reperfusion",−0.40 mv
same,change in mean elevation of ST-segment vs control occlusion,"[1]; occlusion immediately after injection, 30 sec of occlusion",−1.20* mv
same,change in mean elevation of ST-segment vs control occlusion,"[1]; occlusion immediately after injection, 1 min of occlusion",−0.90* mv
same,change in mean elevation of ST-segment vs control occlusion,"[1]; occlusion immediately after injection, 2 min of occlusion",−1.25* mv
same,change in mean elevation of ST-segment vs control occlusion,"[1]; occlusion immediately after injection, 4 min of occlusion",−0.70 mv
same,change in mean elevation of ST-segment vs control occlusion,"[1]; occlusion immediately after injection, 5 min of occlusion",−0.80 mv
same,"effect on mean elevation of ST-segment during 5 min occlusion, in words","[1]; cats, 1,0 mg/kg i.v.",decreased the mean elevation of ST-segment
